Assay results reported in patent US6680304B2, “Disaccharides with anti-arthrosic properties” (Bioiberica, S.A., priority 2000, dated 2004).
Counter-ions that a name gives are not always drawn.

Legend:
IL-1β = test: Intracellular IL-1β level in IL-1-treated chondrocytes, flow cytometry; type: cell-based, human; conditions: for IL-1β: 7 days, average of three measures; for change in levels of IL-1β: IL-1+ chondrocytes, treated compared to untreated
Description: (§1) Each of the compounds (Ib, IC) has been tested on human articular cartilage chondrocytes obtained from 2 different donors. The chondrocytes were cultured over 7 days in alginate gel and during this period they were exposed to the different drugs. The cells were then isolated from the gel and tested. The test protocol specified that the chondrocytes were exposed to IL-1 since it has been shown that particularly IL-1-treated chondrocytes, as opposed to non-treated chondrocytes, respond to polysulphated polysaccharides. As a positive control, chondroitin sulphate (CS) and chondroitin polysulphate (CPS) have been used.
(§2) The accumulation of aggrecan and of type II collagen in the cell-associated matrix (CAM) of the chondrocytes in culture was the primary variable to evaluate the DMOAD (Disease Modifying Osteoarthritic Drug) effects of the 2 compounds. The intracellular levels of IL-1α and β, MMP-13 were also studied.
(§3) All assays were made by flow cytometry. Specific Fluoresceine Isothiocyanate- (FITC-) or Phycoerythin (PE-) conjugated monoclonal antibodies (Mab) against the different proteins have been used. The results were expressed as Mean Fluorescence Intensity (MFI) of the chondrocyte population after staining with the respective Mab.

MMP-13 = test: Intracellular MMP-13 level in IL-1-treated chondrocytes, flow cytometry; type: cell-based, human; conditions: for MMP-13: 7 days, average of three measures; for change in levels of MMP-13: IL-1+ chondrocytes, treated compared to untreated
Description: as §1, §2, §3

type II collagen = test: Type II collagen accumulation in cell-associated matrix of IL-1-treated chondrocytes in alginate gel, flow cytometry; type: cell-based, human; conditions: for COLL (type II collagen): 7 days, average of three measures; for change in accumulation of type II collagen in the CAM: IL-1+ chondrocytes, treated compared to untreated
Description: as §1, §2, §3

IL-1α = test: Intracellular IL-1α level in IL-1-treated chondrocytes, flow cytometry; type: cell-based, human; conditions: for IL-1α / IL-Iα: 7 days, average of three measures; for change in levels of IL-1α: IL-1+ chondrocytes, treated compared to untreated
Description: as §1, §2, §3

aggrecan = test: Aggrecan accumulation in cell-associated matrix of IL-1-treated chondrocytes in alginate gel, flow cytometry; type: cell-based, human; conditions: for AGGR (aggrecan): 7 days, average of three measures; for change in accumulation of aggrecan in the CAM: IL-1+ chondrocytes, treated compared to untreated
Description: as §1, §2, §3

[1] = tested on: human articular chondrocytes; test: Overall DMOAD (cartilage structure modifying) effect on cultured chondrocytes; type: cell-based; conditions: effects comparable to those of CS and CPS
Description: as §1, §2, §3

[2] = Table 1, donor F53 + IL-1β, 25 μ/ml
[3] = Table 2, donor F53 + IL-1β, 25 μg/ml
[4] = Table 1, donor F53 + IL-1β, 10 μ/ml
[5] = Table 2, donor F53 + IL-1β, 10 μg/ml

| Compound | overall conclusion on effect on cartilage [1] | change in levels of IL-1β (IL-1β) | IL-1β (IL-1β; [4]) [MFI] | IL-1β (IL-1β; [5]) [MFI] | IL-1β (IL-1β; donor F16 + IL-1β, 10 μ/ml) [MFI] | IL-1β (IL-1β; donor F73 + IL-1β, 10 μg/ml) [MFI] | change in levels of MMP-13 (MMP-13) | MMP-13 (MMP-13; [4]) [MFI] | MMP-13 (MMP-13; [5]) [MFI] | MMP-13 (MMP-13; donor F16 + IL-1β, 10 μ/ml) [MFI] | MMP-13 (MMP-13; donor F73 + IL-1β, 10 μg/ml) [MFI] | change in accumulation of type II collagen in the CAM (type II collagen) | COLL (type II collagen) (type II collagen; [4]) [MFI] | COLL (type II collagen) (type II collagen; [5]) [MFI] | COLL (type II collagen) (type II collagen; donor F16 + IL-1β, 10 μ/ml) [MFI] | COLL (type II collagen) (type II collagen; donor F73 + IL-1β, 10 μg/ml) [MFI] | change in levels of IL-1α (IL-1α) | IL-1α (IL-1α; [4]) [MFI] | IL-Iα (IL-1α; [5]) [MFI] | IL-1α (IL-1α; donor F16 + IL-1β, 10 μ/ml) [MFI] | further results |
| --- | --- | --- | --- | --- | --- | --- | --- | --- | --- | --- | --- | --- | --- | --- | --- | --- | --- | --- | --- | --- | --- |
| CO[C@H]1O[C@H](COS(=O)(=O)[O-])[C@@H](O)[C@H](O[C@@H]2O[C@H](C(=O)[O-])[C@@H](O)[C@H](O)[C@H]2O)[C@H]1NC(C)=O.[Na+].[Na+] [Ib, Methyl 2-acetamido-2-deoxy-3-O-(β-D-glucopyranosyluronic acid)-6-O-sulfo-α-D-glucopyranoside, disodium salt] | cartilage structure modifying effects |  |  |  |  |  |  |  |  |  |  |  |  |  |  |  |  |  |  |  | IL-1β (IL-1β; [2]): 2.92 MFI; IL-1β (IL-1β; donor F16 + IL-1β, 25 μ/ml): 1.03 MFI; MMP-13 (MMP-13; [2]): 17.67 MFI; MMP-13 (MMP-13; donor F16 + IL-1β, 25 μ/ml): 22.49 MFI; COLL (type II collagen) (type II collagen; [2]): 1.00 MFI; COLL (type II collagen) (type II collagen; donor F16 + IL-1β, 25 μ/ml): 2.92 MFI; IL-1α (IL-1α; [2]): 44.24 MFI; IL-1α (IL-1α; donor F16 + IL-1β, 25 μ/ml): 19.83 MFI; AGGR (aggrecan) (aggrecan; [2]): 14.41 MFI; AGGR (aggrecan) (aggrecan; donor F16 + IL-1β, 25 μ/ml): 48.77 MFI |
| CO[C@H]1O[C@H](COS(=O)(=O)O)[C@@H](OS(=O)(=O)O)[C@H](O[C@@H]2O[C@H](C(=O)O)[C@@H](O)[C@H](O)[C@H]2O)[C@H]1NC(C)=O [Ic, Methyl 2-acetamido-2-deoxy-3-O-(β-D-glucopyranosyluronic acid)-4,6-di-O-sulfo-α-D-glucopyranoside, trisodium salt] | cartilage structure modifying effects |  |  |  |  |  |  |  |  |  |  |  |  |  |  |  |  |  |  |  | IL-1β (IL-1β; [3]): 3.63 MFI; IL-1β (IL-1β; donor F73 + IL-1β, 25 μg/ml): 0.45 MFI; MMP-13 (MMP-13; [3]): 19.62 MFI; MMP-13 (MMP-13; donor F73 + IL-1β, 25 μg/ml): 18.92 MFI; COLL (type II collagen) (type II collagen; [3]): 0.97 MFI; COLL (type II collagen) (type II collagen; donor F73 + IL-1β, 25 μg/ml): 2.45 MFI; IL-Iα (IL-1α; [3]): 44.69 MFI; IL-Iα (IL-1α; donor F73 + IL-1β, 25 μg/ml): 14.92 MFI; AGGR (aggrecan) (aggrecan; [3]): 18.42 MFI; AGGR (aggrecan) (aggrecan; donor F73 + IL-1β, 25 μg/ml): 59.82 MFI |
| chondroitin polysulphate [CPS] |  | statistically significant decrease | 2.68 | 2.68 | 1.18 | 0.45 | statistically significant decrease | 11.82 | 11.82 | 23.20 | 22.11 | statistically significant increase | 2.12 | 2.12 | 2.31 | 1.96 | statistically significant decrease | 43.84 | 43.84 | 16.94 | IL-Iα (IL-1α; donor F73 + IL-1β, 10 μg/ml): 16.43 MFI; change in accumulation of aggrecan in the CAM (aggrecan): statistically significant increase; AGGR (aggrecan) (aggrecan; [4]): 19.47 MFI; AGGR (aggrecan) (aggrecan; [5]): 19.47 MFI; AGGR (aggrecan) (aggrecan; donor F16 + IL-1β, 10 μ/ml): 46.41 MFI; AGGR (aggrecan) (aggrecan; donor F73 + IL-1β, 10 μg/ml): 24.71 MFI |
| chondroitin sulphate [CS] |  | statistically significant decrease | 3.06 | 3.06 | 1.17 | 0.47 | statistically significant decrease | 14.70 | 14.70 | 23.34 | 21.12 | statistically significant increase | 1.23 | 1.23 | 2.97 | 1.45 | statistically significant decrease | 45.41 | 45.41 | 17.09 | IL-Iα (IL-1α; donor F73 + IL-1β, 10 μg/ml): 17.49 MFI; change in accumulation of aggrecan in the CAM (aggrecan): statistically significant increase; AGGR (aggrecan) (aggrecan; [4]): 15.09 MFI; AGGR (aggrecan) (aggrecan; [5]): 15.09 MFI; AGGR (aggrecan) (aggrecan; donor F16 + IL-1β, 10 μ/ml): 47.39 MFI; AGGR (aggrecan) (aggrecan; donor F73 + IL-1β, 10 μg/ml): 28.72 MFI |
